# Results as given in patent US4451485A, “Treatment of cardio-vascular diseases with 3-(2,2,2-trimethylhydrazinium) propionate dihydrate” (Institu Organicheskogo Sinteza Akademii Nauk Latviiskoi SSR, priority 1981, dated 1984).
# Values joined by “and” are separate entries in the source; they are usually repeats but may differ in a detail not shown here. Equal entries are not always repeated.
# Assays:
# [1] = Variation of arrhythmogenic and lethal doses of CaCl2 in mice; format: in vivo, white mice
# Method: Thus, the effect of the preparation according to the present invention has been studied relative to the variation of arrhythmogenic and lethal doses of calcium chloride. An experiment was carried out on white mice of both sexes weighing 19-28 g which were narcotized by urethane and an ECG was remetered in transthoracic lead. A 2% solution of calcium chloride was administered to the test animals into the tail vein at a constant rate (0.1 ml for 15 seconds). The average dose of calcium chloride causing the appearance of arrhythmia and heart arrest was determined. In the test groups, the studied compounds were administered 45, 60, 120, 180 and 240 minutes before the beginning of administration of calcium chloride (Table 1).
# Variation of arrthythmogenic and lethal doses of CaCl2
# with time after administration of the studied
# pharmaceutical compositions in experiments on mice.
# [2] = Threshold of electric fibrillation of auricles and ventricles in cats; format: in vivo
# Method: Furthermore, the preparation according to the present invention was tested for specific antiarrhythmic and antianginal effects. […] The effect of the novel pharmaceutical composition according to the present invention was studied on cats weighing 2.9-3.6 kg. The preparation was used as a 10% aqueous solution containing 3-(2,2,2-trimethylhydrazinium)propionate for the determination of the threshold value of electric fibrillation of auricles and ventricles. Under artificial respiration after opening of the thorax and pericardium, needle-like electrodes were applied to the right auricula and apex of the left ventricle. The irritation was effected by square pulses of 1 m.s., 15 st/s.
# For the comparison of preparations, as the criterion of the range of therapeutic effect, there was used the ratio of the half-lethal dose to the half-effective dose (LD50 /ED50) which was referred to as the antiarrhythmic index. […] The comparative study of the antiarrhythmic activity of pharmaceutical preparations using an acotine model of arrhythmia was effected in experiments on white rats weighing 190-240 g. The test preparations were administered intraperitoneally 10-40 minutes before administration of aconitine.
# [3] = test system: fruit flies; assay: Mutagenous activity on fruit flies; format: in vivo; details: dihydrate
# [4] = 10 mg/kg intraperitoneal, 60 minutes
# [5] = 10 mg/kg intraperitoneal, 120 minutes
# [6] = 10 mg/kg intraperitoneal, 180 minutes
# [7] = 30 mg/kg intraperitoneal, 60 minutes
# [8] = 30 mg/kg intraperitoneal, 180 minutes
# [9] = 30 mg/kg intraperitoneal, 240 minutes
smiles,measurement,setting,value
"C[N+](C)(C)NCCC(=O)[O-] [3-(2,2,2-trimethylhydrazinium)propionate]",Arrhythmogenic dose of CaCl2,"[1]; 10 mg/kg intraperitoneal, 45 minutes before CaCl2, control 85",91.5 mg/kg
same,Lethal dose of CaCl2,"[1]; 10 mg/kg intraperitoneal, 45 minutes before CaCl2, control 100.9",101.7 mg/kg
same,Arrhythmogenic dose of CaCl2,[1]; [4],103.4 mg/kg
same,Lethal dose of CaCl2,[1]; [4],122.2 mg/kg
same,Arrhythmogenic dose of CaCl2,[1]; [5],111.9 mg/kg
same,Lethal dose of CaCl2,[1]; [5],130 mg/kg
same,Arrhythmogenic dose of CaCl2,[1]; [6],110.1 mg/kg
same,Lethal dose of CaCl2,[1]; [6],116 mg/kg
same,Arrhythmogenic dose of CaCl2,[1]; [7],106.7 mg/kg
same,Lethal dose of CaCl2,[1]; [7],122.8 mg/kg
same,Arrhythmogenic dose of CaCl2,[1]; [8],117.5 mg/kg
same,Lethal dose of CaCl2,[1]; [8],130.2 mg/kg
same,Arrhythmogenic dose of CaCl2,[1]; [9],121.9 mg/kg
same,Lethal dose of CaCl2,[1]; [9],128 mg/kg
same,Effect on arrhythmogenic and lethal doses of calcium chloride,[1]; single intraperitoneal administration,increases the arrhythmogenic and lethal doses of calcium chloride
same,Increase of the threshold of electrical fibrillation of auricle and ventricles,[2]; 6 to 15 mg/kg intravenous,40-55%
same,ED50,"[2]; Felis catus, iv, read-out: ED50, electric irritation of cat's heart",10 ± 3.5 mg/kg
same,"Antiarrhythmic index LD50/ED50, electric irritation of cat's heart",[2]; intravenous,443 and 433
same,Mutagenous activity,[3],does not have mutagenous activity
